Measurements from ChEMBL document CHEMBL4138123, “Design, synthesis and biological evaluation of novel pyrazolochalcones as potential modulators of PI3K/Akt/mTOR pathway and inducers of apoptosis in breast cancer cells” (Eur J Med Chem, 2017).

How the values were obtained:
HL-60(TB) = test: Cytotoxicity against human HL-60(TB) cells assessed as growth inhibition after 48 hrs by sulforhodamine B assay; assay type: functional; settings: HL-60, 48 h
HOP-62 [1] = test: Cytotoxicity against human HOP62 cells assessed as growth inhibition after 48 hrs by sulforhodamine B assay; assay type: functional; settings: HOP-62, 48 h
NCI-H23 = test: Cytotoxicity against human NCI-H23 cells assessed as growth inhibition after 48 hrs by sulforhodamine B assay; assay type: functional; settings: NCI-H23, 48 h; for CC50: read-out: LC50 (the source's name)
U-251 = test: Cytotoxicity against human U251 cells assessed as growth inhibition after 48 hrs by sulforhodamine B assay; assay type: functional; settings: U-251, 48 h
BT-549 [2] = test: Cytotoxicity against human BT549 cells assessed as growth inhibition after 48 hrs by sulforhodamine B assay; assay type: functional; settings: BT-549, 48 h
T47D [3] = test: Cytotoxicity against human T47D cells assessed as growth inhibition after 48 hrs by sulforhodamine B assay; assay type: functional
MDA-MB-468 = test: Cytotoxicity against human MDA-MB-468 cells assessed as growth inhibition after 48 hrs by sulforhodamine B assay; assay type: functional; settings: MDA-MB-468, 48 h
MCF7 = test: Cytotoxicity against human MCF7 cells assessed as growth inhibition after 48 hrs by MTT assay; assay type: functional, cell-based; settings: MCF7, 48 h
OVCAR-5 = test: Cytotoxicity against human OVCAR5 cells assessed as cell growth at 0.01 uM after 48 hrs by sulforhodamine B assay relative to control; assay type: functional; settings: OVCAR-5, 48 h, read-out: Activity
OVCAR-4 [4] = test: Cytotoxicity against human OVCAR4 cells assessed as cell growth at 0.01 uM after 48 hrs by sulforhodamine B assay relative to control; assay type: functional; settings: OVCAR-4, 48 h, read-out: Activity
HCC 2998 = test: Cytotoxicity against human HCC2998 cells assessed as cell growth at 0.01 uM after 48 hrs by sulforhodamine B assay relative to control; assay type: functional; settings: HCC 2998, 48 h, read-out: Activity
MOLT-4 [5] = test: Cytotoxicity against human MOLT4 cells assessed as cell growth at 0.01 uM after 48 hrs by sulforhodamine B assay relative to control; assay type: functional; settings: MOLT-4, 48 h, read-out: Activity
PC-3 [6] = test: Cytotoxicity against human PC3 cells assessed as cell growth at 0.01 uM after 48 hrs by sulforhodamine B assay relative to control; assay type: functional; settings: PC-3, 48 h, read-out: Activity
NCI-H460 = test: Cytotoxicity against human NCI-H460 cells assessed as cell growth at 0.1 uM after 48 hrs by sulforhodamine B assay relative to control; assay type: functional; settings: NCI-H460, 48 h, read-out: Activity
SF-268 = test: Cytotoxicity against human SF268 cells assessed as cell growth at 0.1 uM after 48 hrs by sulforhodamine B assay relative to control; assay type: functional; settings: SF-268, 48 h, read-out: Activity
T47D [7] = test: Cytotoxicity against human T47D cells assessed as cell growth at 0.1 uM after 48 hrs by sulforhodamine B assay relative to control; assay type: functional; settings: read-out: Activity
HCT-15 [8] = test: Cytotoxicity against human HCT15 cells assessed as cell growth at 1 uM after 48 hrs by sulforhodamine B assay relative to control; assay type: functional; settings: HCT-15, 48 h, read-out: Activity
IGROV-1 = test: Cytotoxicity against human IGROV1 cells assessed as cell growth at 1 uM after 48 hrs by sulforhodamine B assay relative to control; assay type: functional; settings: IGROV-1, 48 h, read-out: Activity
BT-549 [9] = test: Cytotoxicity against human BT549 cells assessed as cell growth at 1 uM after 48 hrs by sulforhodamine B assay relative to control; assay type: functional; settings: BT-549, 48 h, read-out: Activity
NCI-H226 = test: Cytotoxicity against human NCI-H226 cells assessed as cell growth at 10 uM after 48 hrs by sulforhodamine B assay relative to control; assay type: functional; settings: NCI-H226, 48 h, read-out: Activity
NCI-H522 = test: Cytotoxicity against human NCI-H522 cells assessed as cell growth at 10 uM after 48 hrs by sulforhodamine B assay relative to control; assay type: functional; settings: NCI-H522, 48 h, read-out: Activity
SF-539 = test: Cytotoxicity against human SF539 cells assessed as cell growth at 10 uM after 48 hrs by sulforhodamine B assay relative to control; assay type: functional; settings: SF-539, 48 h, read-out: Activity
SK-MEL-5 = test: Cytotoxicity against human SK-MEL-5 cells assessed as cell growth at 10 uM after 48 hrs by sulforhodamine B assay relative to control; assay type: functional; settings: SK-MEL-5, 48 h, read-out: Activity
Hs-578T = test: Cytotoxicity against human Hs 578T cells assessed as cell growth at 10 uM after 48 hrs by sulforhodamine B assay relative to control; assay type: functional; settings: read-out: Activity
MOLT-4 [10] = test: Cytotoxicity against human MOLT4 cells assessed as cell growth at 100 uM after 48 hrs by sulforhodamine B assay relative to control; assay type: functional; settings: MOLT-4, 48 h, read-out: Activity
HOP-62 [11] = test: Cytotoxicity against human HOP62 cells assessed as cell growth at 100 uM after 48 hrs by sulforhodamine B assay relative to control; assay type: functional; settings: HOP-62, 48 h, read-out: Activity
HCT-116 = test: Cytotoxicity against human HCT116 cells assessed as cell growth at 100 uM after 48 hrs by sulforhodamine B assay relative to control; assay type: functional; settings: HCT-116, 48 h, read-out: Activity
HCT-15 [12] = test: Cytotoxicity against human HCT15 cells assessed as cell growth at 100 uM after 48 hrs by sulforhodamine B assay relative to control; assay type: functional; settings: HCT-15, 48 h, read-out: Activity
OVCAR-4 [13] = test: Cytotoxicity against human OVCAR4 cells assessed as cell growth at 100 uM after 48 hrs by sulforhodamine B assay relative to control; assay type: functional; settings: OVCAR-4, 48 h, read-out: Activity
OVCAR-8 = test: Cytotoxicity against human OVCAR8 cells assessed as cell growth at 100 uM after 48 hrs by sulforhodamine B assay relative to control; assay type: functional; settings: OVCAR-8, 48 h, read-out: Activity
SK-OV-3 = test: Cytotoxicity against human SKOV3 cells assessed as cell growth at 100 uM after 48 hrs by sulforhodamine B assay relative to control; assay type: functional; settings: SK-OV-3, 48 h, read-out: Activity
786-0 = test: Cytotoxicity against human 786-0 cells assessed as cell growth at 100 uM after 48 hrs by sulforhodamine B assay relative to control; assay type: functional; settings: 786-0, 48 h, read-out: Activity
PC-3 [14] = test: Cytotoxicity against human PC3 cells assessed as cell growth at 100 uM after 48 hrs by sulforhodamine B assay relative to control; assay type: functional; settings: PC-3, 48 h, read-out: Activity
DU-145 = test: Cytotoxicity against human DU145 cells assessed as cell growth at 100 uM after 48 hrs by sulforhodamine B assay relative to control; assay type: functional; settings: DU-145, 48 h, read-out: Activity
T47D [15] = test: Cytotoxicity against human T47D cells assessed as cell growth at 100 uM after 48 hrs by sulforhodamine B assay relative to control; assay type: functional; settings: read-out: Activity

COc1ccc(-c2cc(/C=C/C(=O)c3ccc(N)cc3)[nH]n2)cc1
GI50 (HL-60(TB)): 1.43 µM
LC50 (HL-60(TB)): > 100 µM
TGI (HL-60(TB)): 7.71 µM
GI50 (HOP-62 [1]): 2.8 µM
LC50 (HOP-62 [1]): 61.2 µM
TGI (HOP-62 [1]): 7.49 µM
GI50 (NCI-H23): 3.22 µM
TGI (NCI-H23): 13.1 µM
CC50 (NCI-H23): 68.4 µM
GI50 (U-251): 1.24 µM
LC50 (U-251): 5.3 µM
TGI (U-251): 2.57 µM
GI50 (BT-549 [2]): 1.74 µM
LC50 (concentration killing 50% of cells) (BT-549 [2]): 36.3 µM
TGI (BT-549 [2]): 4.78 µM
GI50 (T47D [3]): 1.47 µM
LC50 (T47D [3]): 85.8 µM
TGI (T47D [3]): 9.77 µM
GI50 (MDA-MB-468): 0.43 µM
LC50 (MDA-MB-468): 7.45 µM
TGI (MDA-MB-468): 2.09 µM
IC50 (MCF7): 0.8 µM
growth at 0.01 µM (OVCAR-5): 99%
growth at 0.01 µM (OVCAR-4 [4]): 88%
growth at 0.01 µM (HCC 2998): 96%
growth at 0.01 µM (MOLT-4 [5]): 97%
growth at 0.01 µM (PC-3 [6]): 95%
growth at 0.1 µM (NCI-H460): 102%
growth at 0.1 µM (SF-268): 93%
growth at 0.1 µM (T47D [7]): 87%
growth at 1 µM (HCT-15 [8]): 50%
growth at 1 µM (IGROV-1): 89%
growth at 1 µM (BT-549 [9]): 77%
growth at 10 µM (NCI-H226): -29%
growth at 10 µM (NCI-H522): -70%
growth at 10 µM (SF-539): -61%
growth at 10 µM (SK-MEL-5): -3%
growth at 10 µM (Hs-578T): 22%
growth at 100 µM (MOLT-4 [10]): -47%
growth at 100 µM (HOP-62 [11]): -60%
growth at 100 µM (HCT-116): -15%
growth at 100 µM (HCT-15 [12]): -59%
growth at 100 µM (OVCAR-4 [13]): -68%
growth at 100 µM (OVCAR-8): -41%
growth at 100 µM (SK-OV-3): -68%
growth at 100 µM (786-0): -57%
growth at 100 µM (PC-3 [14]): -83%
growth at 100 µM (DU-145): -100%
growth at 100 µM (T47D [15]): -54%

COc1ccc(C(=O)/C=C/c2cc(-c3cc(OC)c(OC)c(OC)c3)n[nH]2)cc1
LC50 (HL-60(TB)): > 100 µM
TGI (HL-60(TB)): 4.78 µM
LC50 (HOP-62 [1]): 8.07 µM
TGI (HOP-62 [1]): 3.77 µM
TGI (NCI-H23): 12.2 µM
CC50 (NCI-H23): > 100 µM
TGI (U-251): 2.83 µM
TGI (BT-549 [2]): 3.86 µM
LC50 (T47D [3]): > 100 µM
TGI (T47D [3]): 13 µM
GI50 (MDA-MB-468): 1.29 µM
LC50 (MDA-MB-468): 5.45 µM
TGI (MDA-MB-468): 2.65 µM
IC50 (MCF7): 0.81 µM
growth at 0.01 µM (OVCAR-5): 99%
growth at 0.01 µM (OVCAR-4 [4]): 91%
growth at 0.01 µM (HCC 2998): 101%
growth at 0.01 µM (MOLT-4 [5]): 103%
growth at 0.01 µM (PC-3 [6]): 99%
growth at 0.1 µM (NCI-H460): 102%
growth at 0.1 µM (SF-268): 91%
growth at 0.1 µM (T47D [7]): 93%
growth at 1 µM (HCT-15 [8]): 72%
growth at 1 µM (IGROV-1): 101%
growth at 1 µM (BT-549 [9]): 93%
growth at 10 µM (NCI-H226): -59%
growth at 10 µM (NCI-H522): -73%
growth at 10 µM (SF-539): -92%
growth at 10 µM (SK-MEL-5): -89%
growth at 10 µM (Hs-578T): 13%
growth at 100 µM (MOLT-4 [10]): -4%
growth at 100 µM (HOP-62 [11]): -79%
growth at 100 µM (HCT-116): -10%
growth at 100 µM (HCT-15 [12]): -33%
growth at 100 µM (OVCAR-4 [13]): -15%
growth at 100 µM (OVCAR-8): -16%
growth at 100 µM (SK-OV-3): -41%
growth at 100 µM (786-0): -48%
growth at 100 µM (PC-3 [14]): 1%
growth at 100 µM (DU-145): -2%
growth at 100 µM (T47D [15]): -9%
